Source: patent US10493108B2, “Non-invasive in vivo imaging and methods for treating diabetes” (Biocrine AB, priority 2007, dated 2019)

Tests used:
islet cells (β-cells) = assay: In vivo recording of [Ca2+]i changes in islets engrafted in the anterior chamber of the eye (Fluo-4/Fura-Red ratio); design: species or system mouse; details: glibenclamide 1 mg/kg i.v.; remained high throughout the recording
[1] = Blood glucose after intravenous glibenclamide; assay type: in vivo, mouse; details: glibenclamide intravenously (1 mg/kg, tail vein); data not shown
[2] = test system: β-cells of RIP-GFP islet grafts; details: mouse, in vivo
[3] = Blood glucose after intravenous alloxan; details: alloxan 75 mg/kg i.v., after 24 h, n=6
islet cells = details: direct mechanism on islet cells; cited from earlier work

COc1ccc(Cl)cc1C(=O)NCCc1ccc(S(=O)(=O)NC(=O)NC2CCCCC2)cc1 [glibenclamide]
[Ca2+]i in islet cells (Fluo-4/Fura-Red fluorescence ratio) (islet cells (β-cells)): prominent rises
blood glucose levels [1]: decreased blood glucose levels

O=C1NC(=O)C(=O)C(=O)N1 [alloxan]
GFP fluorescence of islet grafts [2]: substantial loss of GFP fluorescence
annexin V-APC labelling of islet grafts [2]: strong labelling
blood glucose concentration [3]: 25.0 ± 1.3 mmol/L

FC(F)OC(Cl)C(F)(F)F (stereo not drawn) [Isoflurane]
glucose stimulated insulin release (islet cells): inhibit
